The target of the test is T1, CGRP1 receptor (Homo sapiens, UniProt O60894+Q16602).
T1 construct: SK-N-MC cells express CRLR and RAMP1, which form CGRP1 receptor; endogenous in cells; host or cells: SK-N-MC human neuroblastoma cells
Nature of the test: in vitro CGRP1 receptor mediated cAMP assay in SK-N-MC cells. The class given is cell-based. The method, boiled down:
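Intracellular cAMP served as the Gs-coupled CGRP1 readout in endogenously expressing SK-N-MC cells. After a 15-minute room-temperature step in plasma-free medium, cell lysates (30 minutes, 37° C) went into a competitive ELISA with a cAMP-AP conjugate and anti-cAMP antibody for 1 hour, then a 30-minute substrate enhancer step before reading.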
(Cyclic AMP is a second messenger, typically raised through Gs and lowered through Gi signalling.)

Setting [1] is: Table 2C, unconjugated peptide, read-out: Peptide IC50.

Like-named read-outs stand apart in the source and are kept apart here. Square brackets hold non-standard residues; d marks the D form. Peptide text beside a SMILES is read from it. Oic = O=C(O)[C@@H]1C[C@@H]2CCCC[C@@H]2N1; Phe(4-I) = N[C@@H](Cc1ccc(I)cc1)C(=O)O; 2Nal = N[C@@H](Cc1ccc2ccccc2c1)C(=O)O; hArg = N=C(N)NCCCC[C@H](N)C(=O)O; Cit = NC(=O)NCCC[C@H](N)C(=O)O; Nle = CCCC[C@H](N)C(=O)O; PEG = not defined here

The values below come from patent US8168592B2 (Amgen Inc., priority 2005, dated 2012).

For orientation: IC50 means the point on the concentration scale where inhibition reaches its midpoint.

T1 sequence (Q16602 23-461): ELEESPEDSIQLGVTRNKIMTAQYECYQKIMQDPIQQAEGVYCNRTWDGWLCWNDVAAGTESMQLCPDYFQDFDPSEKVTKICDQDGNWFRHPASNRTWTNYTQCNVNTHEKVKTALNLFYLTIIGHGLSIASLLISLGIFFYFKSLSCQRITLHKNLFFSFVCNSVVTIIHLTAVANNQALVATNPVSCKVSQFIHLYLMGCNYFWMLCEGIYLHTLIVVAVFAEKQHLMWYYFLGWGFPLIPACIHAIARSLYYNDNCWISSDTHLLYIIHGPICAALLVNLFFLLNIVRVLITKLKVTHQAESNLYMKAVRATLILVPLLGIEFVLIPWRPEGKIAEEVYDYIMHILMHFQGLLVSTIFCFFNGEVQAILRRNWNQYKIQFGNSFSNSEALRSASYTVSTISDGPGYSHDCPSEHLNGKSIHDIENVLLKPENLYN
T1 sequence (O60894 27-148): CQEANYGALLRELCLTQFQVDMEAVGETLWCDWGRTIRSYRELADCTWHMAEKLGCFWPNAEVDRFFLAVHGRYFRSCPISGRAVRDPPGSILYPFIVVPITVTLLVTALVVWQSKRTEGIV

For “SEQ ID NO:26 (WVTHXLAGLLSXSGGVVRKNFVPTDVGPFAF; CGRP peptide; MOD_RES (1)..(1): …ON; MISC_FEATURE (5)..(5): xaa=homoarginine; MISC_FEATURE (12)..(12): xaa=homoarginine; MISC_FEATURE (19)..(19): PEGylated; MOD_RES (31)..(31): AMIDATION)”, the “antagonist activity in cAMP assay, in words” value (from here on “antagonist activity … in words”) is recorded as “antagonist activity returned to the levels of the two peptides with single substitutions”. For the compound “SEQ ID NO:36 (Ac-WVTHRLAGLLSQSGGVVRC(PEG)NFVPTDVGPFAF-NH2; reading uncertain)”, the “loss in antagonist activity on PEGylation relative to the unconjugated parent peptide” value (cAMP assay) was “greater than 12 fold”. Take `CC(=O)N[C@@H](Cc1c[nH]c2ccccc12)C(=O)N[C@H](C(=O)N[C@H](C(=O)N[C@@H](Cc1c[nH]cn1)C(=O)N[C@@H](CCCNC(N)=O)C(=O)N[C@@H](CC(C)C)C(=O)N[C@@H](C)C(=O)NCC(=O)N[C@@H](CC(C)C)C(=O)N[C@@H](CC(C)C)C(=O)N[C@@H](CO)C(=O)N[C@@H](CCCNC(N)=O)C(=O)N[C@@H](CO)C(=O)NCC(=O)NCC(=O)N[C@H](C(=O)N[C@H](C(=O)N[C@@H](CCCCNC(=N)N)C(=O)N[C@@H](CCCCN)C(=O)N[C@@H](CC(N)=O)C(=O)N[C@@H](Cc1ccc(I)cc1)C(=O)N[C@H](C(=O)N1[C@H](C(=O)N[C@H](C(=O)N[C@@H](CC(=O)O)C(=O)N[C@H](C(=O)NCC(=O)N2CCC[C@H]2C(=O)N[C@@H](Cc2ccc(I)cc2)C(=O)N[C@@H](C)C(=O)N[C@@H](Cc2ccccc2)C(N)=O)C(C)C)[C@@H](C)O)C[C@@H]2CCCC[C@@H]21)C(C)C)C(C)C)C(C)C)[C@@H](C)O)C(C)C` [compound 136] (Ac-WVTH[Cit]LAGLLS[Cit]SGGVV[hArg]KN[Phe(4-I)]V[Oic]TDVGP[Phe(4-I)]AF-NH2): the 50% inhibitory concentration (IC50) (Table 2A, read-out: IC50) was 2.34 nM.

Regarding “SEQ ID NO:35 (Ac-WVTHRLAGLLSQSGGVVRCNFVPTDVGPFAF-NH2)”, the “antagonist activity … in words” value is on record as “well tolerated”.

With “SEQ ID NO:5 (Ac-WVTHRLAGLLSRSGGVVKNNFVPTDVGPFAF-NH2)”, the “improved potency relative to native CGRP(8-37) (SEQ ID NO:1)” value (cAMP assay) is reported as “greater than 35 fold”.

Take `CC(=O)N[C@@H](Cc1c[nH]c2ccccc12)C(=O)N[C@H](C(=O)N[C@H](C(=O)N[C@@H](Cc1c[nH]cn1)C(=O)N[C@@H](CCCNC(N)=O)C(=O)N[C@@H](CC(C)C)C(=O)N[C@@H](C)C(=O)NCC(=O)N[C@@H](CC(C)C)C(=O)N[C@@H](CC(C)C)C(=O)N[C@@H](CO)C(=O)N[C@@H](CCCNC(N)=O)C(=O)N[C@@H](CO)C(=O)NCC(=O)NCC(=O)N[C@H](C(=O)N[C@H](C(=O)N[C@@H](CCCCNC(=N)N)C(=O)N[C@@H](CCCCN)C(=O)N[C@@H](CC(N)=O)C(=O)N[C@@H](Cc1ccc2ccccc2c1)C(=O)N[C@H](C(=O)N1CCC[C@H]1C(=O)N[C@H](C(=O)N[C@@H](CC(=O)O)C(=O)N[C@H](C(=O)NCC(=O)N1[C@H](C(=O)N[C@@H](Cc2ccccc2)C(=O)N[C@@H](C)C(=O)N[C@@H](Cc2ccccc2)C(N)=O)C[C@@H]2CCCC[C@@H]21)C(C)C)[C@@H](C)O)C(C)C)C(C)C)C(C)C)[C@@H](C)O)C(C)C` [compound 137] (Ac-WVTH[Cit]LAGLLS[Cit]SGGVV[hArg]KN[2Nal]VPTDVG[Oic]FAF-NH2): the half-inhibitory concentration (IC50) (Table 2A, read-out: IC50) turned out to be 2.66 nM. With “SEQ ID NO:23 (WVTHRLAGLLSXSGGVVRKNFVPTDVGPFAF; CGRP peptide; MOD_RES (1)..(1): …ON; MISC_FEATURE (12)..(12): xaa=homoarginine; MOD_RES (31)..(31): AMIDATION)”, the “antagonist activity … in words” value is given as “well tolerated”. For `CC(=O)N[C@@H](Cc1c[nH]c2ccccc12)C(=O)N[C@H](C(=O)N[C@H](C(=O)N[C@@H](Cc1c[nH]cn1)C(=O)N[C@@H](CCCCNC(=N)N)C(=O)N[C@@H](CC(C)C)C(=O)N[C@@H](C)C(=O)NCC(=O)N[C@@H](CC(C)C)C(=O)N[C@@H](CC(C)C)C(=O)N[C@@H](CO)C(=O)N[C@@H](CCCNC(=N)N)C(=O)N[C@@H](CO)C(=O)NCC(=O)NCC(=O)N[C@H](C(=O)N[C@H](C(=O)N[C@@H](CCCNC(=N)N)C(=O)N[C@@H](CCCCN)C(=O)N[C@@H](CC(N)=O)C(=O)N[C@@H](Cc1ccccc1)C(=O)N[C@H](C(=O)N1CCC[C@H]1C(=O)N[C@H](C(=O)N[C@@H](CC(=O)O)C(=O)N[C@H](C(=O)NCC(=O)N1CCC[C@H]1C(=O)N[C@@H](Cc1ccccc1)C(=O)N[C@@H](C)C(=O)N[C@@H](Cc1ccccc1)C(N)=O)C(C)C)[C@@H](C)O)C(C)C)C(C)C)C(C)C)[C@@H](C)O)C(C)C` [compound 865], the IC50 under setting [1] is 0.44 nM. For “SEQ ID NO:22 (WVTHXLAGLLSRSGGVVRKNFVPTDVGPFAF; CGRP peptide; MOD_RES (1)..(1): …ON; MISC_FEATURE (5)..(5): xaa=homoarginine; MISC_FEATURE (19)..(19): PEGylated; MOD_RES (31)..(31): AMIDATION)”, the “antagonist activity … in words” value is “retaining their CGRP1 receptor antagonist activity”. `CC(=O)N[C@@H](Cc1c[nH]c2ccccc12)C(=O)N[C@H](C(=O)N[C@H](C(=O)N[C@@H](Cc1c[nH]cn1)C(=O)N[C@@H](CCCNC(N)=O)C(=O)N[C@@H](CC(C)C)C(=O)N[C@@H](C)C(=O)NCC(=O)N[C@@H](CC(C)C)C(=O)N[C@@H](CC(C)C)C(=O)N[C@@H](CO)C(=O)N[C@@H](CCCNC(N)=O)C(=O)N[C@@H](CO)C(=O)NCC(=O)NCC(=O)N[C@H](C(=O)N[C@H](C(=O)N[C@@H](CCCCNC(=N)N)C(=O)N[C@@H](CCCCN)C(=O)N[C@@H](CC(N)=O)C(=O)N[C@@H](Cc1ccccc1)C(=O)N[C@H](C(=O)N1CCC[C@H]1C(=O)N[C@H](C(=O)N[C@@H](CC(=O)O)C(=O)N[C@H](C(=O)NCC(=O)N1[C@H](C(=O)N[C@@H](Cc2ccccc2)C(=O)N[C@@H](C)C(N)=O)C[C@@H]2CCCC[C@@H]21)C(C)C)[C@@H](C)O)C(C)C)C(C)C)C(C)C)[C@@H](C)O)C(C)C` [compound 659] (Ac-WVTH[Cit]LAGLLS[Cit]SGGVV[hArg]KNFVPTDVG[Oic]FA-NH2): where the note is “Table 2A, read-out: IC50”, the concentration for half-maximal inhibition (IC50) is above 1000 nM.

On to `CC(=O)N[C@@H](Cc1cccc2ccccc12)C(=O)N[C@H](C(=O)N[C@@H](CCC(=O)O)C(=O)N[C@@H](Cc1c[nH]cn1)C(=O)N[C@@H](CCCCNC(=N)N)C(=O)N[C@@H](CC(C)C)C(=O)N[C@@H](CCCCN)C(=O)NCC(=O)N[C@@H](CC(C)C)C(=O)N[C@@H](CC(C)C)C(=O)N[C@@H](CO)C(=O)N[C@@H](CCCNC(N)=O)C(=O)N[C@@H](CO)C(=O)NCC(=O)N1CC[C@H]1C(=O)N[C@H](C(=O)N[C@H](C(=O)N[C@@H](CCCCNC(=N)N)C(=O)N[C@@H](CCCCN)C(=O)N[C@@H](CC(N)=O)C(=O)N[C@@H](Cc1ccccc1)C(=O)N[C@H](C(=O)N1CCC[C@H]1C(=O)N[C@H](C(=O)N[C@@H](CC(=O)O)C(=O)N[C@H](C(=O)NCC(=O)N1CCC[C@H]1C(=O)N[C@@H](Cc1ccccc1)C(=O)N[C@@H](C)C(=O)N[C@@H](Cc1ccccc1)C(N)=O)C(C)C)[C@@H](C)O)C(C)C)C(C)C)C(C)C)C(C)C` [compound 910], for which the IC50 under setting [1] was found to be 2.31 nM. Same read-out and setting: as for `CC(=O)N[C@@H](Cc1c[nH]c2ccccc12)C(=O)N[C@H](C(=O)N[C@H](C(=O)N[C@@H](Cc1c[nH]cn1)C(=O)N[C@@H](CCCNC(=N)N)C(=O)N[C@@H](CC(C)C)C(=O)N[C@@H](C)C(=O)NCC(=O)N[C@@H](CC(C)C)C(=O)N[C@@H](CC(C)C)C(=O)N[C@@H](CO)C(=O)N[C@@H](CCCNC(=N)N)C(=O)N[C@@H](CO)C(=O)NCC(=O)NCC(=O)N[C@H](C(=O)N[C@H](C(=O)N[C@@H](CCCNC(=N)N)C(=O)N[C@@H](CCCCN)C(=O)N[C@@H](CC(N)=O)C(=O)N[C@@H](Cc1ccc2ccccc2c1)C(=O)N[C@H](C(=O)N1CCC[C@H]1C(=O)N[C@H](C(=O)N[C@@H](CC(=O)O)C(=O)N[C@H](C(=O)NCC(=O)N1CCC[C@H]1C(=O)N[C@@H](Cc1ccccc1)C(=O)N[C@@H](C)C(=O)N[C@@H](Cc1ccccc1)C(N)=O)C(C)C)[C@@H](C)O)C(C)C)C(C)C)C(C)C)[C@@H](C)O)C(C)C` [compound 912] (Ac-WVTHRLAGLLSRSGGVVRKN[2Nal]VPTDVGPFAF-NH2), the figure is 1.16 nM; as for `CCCC[C@H](NC(=O)[C@@H](NC(=O)CNC(=O)CNC(=O)[C@H](CO)NC(=O)[C@H](CCCNC(N)=O)NC(=O)[C@H](CO)NC(=O)[C@H](CC(C)C)NC(=O)[C@H](CC(C)C)NC(=O)CNC(=O)[C@H](C)NC(=O)[C@H](CC(C)C)NC(=O)[C@H](CCCNC(N)=O)NC(=O)[C@H](Cc1c[nH]cn1)NC(=O)[C@@H](NC(=O)[C@@H](NC(=O)[C@H](Cc1c[nH]c2ccccc12)NC(C)=O)C(C)C)[C@@H](C)O)C(C)C)C(=O)N[C@@H](CCCNC(=N)N)C(=O)N[C@@H](CCCCN)C(=O)N[C@@H](CC(N)=O)C(=O)N[C@@H](Cc1ccccc1)C(=O)N[C@H](C(=O)N1CCC[C@H]1C(=O)N[C@H](C(=O)N[C@@H](CC(=O)O)C(=O)N[C@H](C(=O)NCC(=O)N1CCC[C@H]1C(=O)N[C@@H](Cc1ccccc1)C(=O)N[C@@H](C)C(=O)N[C@@H](Cc1ccccc1)C(N)=O)C(C)C)[C@@H](C)O)C(C)C` [compound 940] (Ac-WVTH[Cit]LAGLLS[Cit]SGGV[Nle]RKNFVPTDVGPFAF-NH2), 1.85 nM. In the case of `CC(=O)N[C@@H](CCCCN)C(=O)N[C@@H](Cc1c[nH]c2ccccc12)C(=O)N[C@H](C(=O)N[C@H](C(=O)N[C@@H](Cc1c[nH]cn1)C(=O)N[C@@H](CCCNC(N)=O)C(=O)N[C@@H](CC(C)C)C(=O)N[C@@H](C)C(=O)NCC(=O)N[C@@H](CC(C)C)C(=O)N[C@@H](CC(C)C)C(=O)N[C@@H](CO)C(=O)N[C@@H](CCCNC(N)=O)C(=O)N[C@@H](CO)C(=O)NCC(=O)NCC(=O)N[C@H](C(=O)N[C@H](C(=O)N[C@@H](CCCNC(=N)N)C(=O)N[C@@H](CCCCN)C(=O)N[C@@H](CC(N)=O)C(=O)N[C@@H](Cc1ccccc1)C(=O)N[C@H](C(=O)N1CCC[C@H]1C(=O)N[C@H](C(=O)N[C@@H](CC(=O)O)C(=O)N[C@H](C(=O)NCC(=O)N1CCC[C@H]1C(=O)N[C@@H](CCCCN)C(=O)N[C@@H](C)C(=O)N[C@@H](Cc1ccccc1)C(N)=O)C(C)C)[C@@H](C)O)C(C)C)C(C)C)C(C)C)[C@@H](C)O)C(C)C` [compound 128] (Ac-KWVTH[Cit]LAGLLS[Cit]SGGVVRKNFVPTDVGPKAF-NH2), under “Table 2A, read-out: IC50”, the IC50 is 13 nM.
